Source: US20250268898A1, “METHODS OF TREATING SYNOVIAL SARCOMA PATHOGENESIS BY SUMO2 INHIBITION” (Sanford Burnham Prebys Medical Discovery Institute, priority 2024, published 2025)
“Also recorded” adds a separate entry of the source.

How the values were obtained:
12273/99 cells = test: Colony-forming assay (crystal violet); assay type: cell-based, human; conditions: Compound 1 titration series
Aska-SS flank tumors = test: Flank tumor xenograft in nude mice; assay type: in vivo
Procedure: (§1) To determine the antitumor activity of Compound 1 in vivo, either Aska-SS cells (harboring the SS18-SSX1 fusion) or SYO1 cells (harboring the SS18-SSX2 fusion) were injected into the flanks of nude mice. When tumors became palpable, mice were treated with 25 mg/kg of Compound 1 or vehicle.
(§2) Flank tumors were harvested, sectioned, and stained with hematoxylin and eosin and analyzed with IHC for tumoricidal markers.

SYO1 flank tumors = test: Flank tumor xenograft in nude mice; assay type: in vivo
Procedure: as §1, §2

[1] = target: T1, Sumo-Activating Enzyme 1 (SAE1) or Sumo-Activating Enzyme 2 (SAE2) (Homo sapiens, UniProt Q9UBE0+Q9UBT2); test: Interruption of the SUMO cycle (SAE inhibition); conditions: E1 Ligase Activation step
T1 sequence (Q9UBE0 1-346): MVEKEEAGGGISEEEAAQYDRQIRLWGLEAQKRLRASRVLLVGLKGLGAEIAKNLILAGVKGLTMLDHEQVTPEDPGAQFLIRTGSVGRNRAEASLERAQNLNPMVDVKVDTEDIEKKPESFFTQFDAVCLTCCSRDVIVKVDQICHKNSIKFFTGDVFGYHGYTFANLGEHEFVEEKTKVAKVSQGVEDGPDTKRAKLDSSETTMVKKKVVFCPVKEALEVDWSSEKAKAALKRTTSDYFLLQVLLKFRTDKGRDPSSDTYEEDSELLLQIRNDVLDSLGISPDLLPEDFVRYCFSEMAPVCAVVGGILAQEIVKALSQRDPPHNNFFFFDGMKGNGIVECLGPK
T1 sequence (Q9UBT2 1-640): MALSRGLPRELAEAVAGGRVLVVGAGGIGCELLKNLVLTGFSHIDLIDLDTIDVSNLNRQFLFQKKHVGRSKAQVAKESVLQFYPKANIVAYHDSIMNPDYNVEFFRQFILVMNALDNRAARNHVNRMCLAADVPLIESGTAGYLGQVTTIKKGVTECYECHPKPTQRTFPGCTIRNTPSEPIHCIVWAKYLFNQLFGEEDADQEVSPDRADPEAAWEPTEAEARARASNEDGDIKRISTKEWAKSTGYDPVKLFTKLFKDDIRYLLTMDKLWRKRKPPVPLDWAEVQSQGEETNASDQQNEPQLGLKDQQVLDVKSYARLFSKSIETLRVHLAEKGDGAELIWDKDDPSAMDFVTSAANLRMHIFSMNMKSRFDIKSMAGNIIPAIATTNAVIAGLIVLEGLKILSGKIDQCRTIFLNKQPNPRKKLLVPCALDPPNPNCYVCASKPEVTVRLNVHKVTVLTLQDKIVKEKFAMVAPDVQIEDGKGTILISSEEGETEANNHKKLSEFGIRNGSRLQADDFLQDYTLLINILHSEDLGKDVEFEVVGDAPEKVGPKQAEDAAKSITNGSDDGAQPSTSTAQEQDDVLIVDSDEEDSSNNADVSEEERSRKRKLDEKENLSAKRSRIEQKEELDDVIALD

SS18-SSX fusion = test: Spike-in normalized CUT&RUN of SS18-SSX chromatin occupancy; assay type: cell-based, human
Procedure: Subsequent studies sought to determine the mechanism behind Compound 1 treatment and the observed attenuation of SS18-SSX expression activity. Initial studies utilizing Cleavage Under Targets & Release Using Nuclease (CUT&RUN) focused on determining whether Compound 1 affects the chromatin occupancy of the SS18-SSX fusion protein. […] Since increased H2AK119ub deposition has been linked to the pathogenic activity of the SS18-SSX fusions, H2AK119 ubiquitination was assessed in Compound 1-treated cells.

HS-SY-II cells = test: Colony-forming assay (crystal violet); assay type: cell-based, human; conditions: Compound 1 titration series
H2AK119ub [2] = test: H2AK119ub immunoblotting; assay type: cell-based, human
SS18-SSX1 protein = test: Western blot for SS18-SSX fusion protein levels; assay type: cell-based, human
Procedure: shRNAs targeting SUMO2 were cloned into a tetracycline-inducible plasmid and expressed in HS-SYII cells. Small hairpin RNAs (shRNAs) for SUMO2 were cloned into the all-in-one-Tet vector and packaged into lentivirus using pMD and pPax2. A cell suspension containing about 300,000 HS-SY-II and SYO1 cells were seeded into six-well culture plates overnight for about 12-14 hours. Transfections were performed with Lipofectamine 2000 reagent. At about 48 hours after transfection, media was changed and puromycin selected for about 2 days. After selection, cells were subjected to a previously determined amount of doxycycline, about 4.5 μg/ml, for about 48 hours. Cells were harvested for qPCR quantification and western blot analysis.
The effect of Compound 1 was compared to the effect of SUMO2 knockdown by shRNA.

Aska-SS cells = test: CellTiter-Glo viability, 2D and 3D cultures; assay type: cell-based; conditions: over 2, 3, and 4 days
Procedure: (§3) To investigate whether the reduction of proliferation by Compound 1 was due to apoptosis and necrosis in synovial sarcoma cell lines, flow cytometric analyses were performed with cells treated with Compound 1 and untreated cells stained with Annexin V-FITC apoptosis marker, as well as Propidium Iodide necrosis marker for cells in media containing Compound 1 and media only containing DMSO. The proliferation assay was performed using Cell Titer Glo Luminescent Cell Viability Assay (Promega). Cell numbers were optimized for 384-well plate for each cell line. SUMO2 inhibitors including Compound 1 were dissolved in DMSO and echo dotted onto a 384-well plate in varying concentrations, with the final concentration of DMSO at about 0.08% in each well. About 25 μL of cell suspension, a concentration of about 50,000 cells/mL were seeded in each well of a 384-well plate. […] Luminescence was recorded with a plate reader (BMG FLUOStar). The EC50 values were calculated by Graphpad Prism software. Apoptosis was quantified by flow cytometry using Annexin V-FITC kit from BD Biosciences. […] The samples were then analyzed by flow cytometry using Fortessa along with FlowJo analysis software. Cell lines analyzed were HS-SY-II (left) and SYO1 (right) (FIG. 3G). […]

HS-SY-II and SYO1 cells = test: Total RNA sequencing, Compound 1 vs DMSO; assay type: cell-based, human
Procedure: To comprehensively interrogate the transcriptomic changes occurring in synovial sarcoma cells, HS-SY-II and SYO1 cells were cultured in media containing DMSO and media containing Compound 1 and subjected to total RNA sequencing. HS-SY-II and SYO1 cells were contacted with either Compound 1 at concentrations of between about 25 nM and about 100 nM, or DMSO for 48 hours. The cell suspensions were pelleted, and RNA was extracted with varying concentrations. TRIzol Reagent was used to extract total RNA from SYO1, and HS-SY-II cell pellets, and strands were synthesized using Protoscript II (NEB) with poly A selection. qPCR was performed using TaqMan Gene Expression Master Mix and FAM probes for SUMO2, HPRT, and GAPDH. Paired-end (2×100 bp) sequencing was performed on the NovaSeq 6000 Sequencing System. Data Processing and QC was completed using FastQC and QC summarization was done by MultiQC. Mapping to human genome hg38 v84 was done using STAR sequence aligner, and expression was estimated using RSEM. DESeq2 was used for differential expression analysis, and IPA algorithm was used in evaluation of upstream pathway regulators.
The RNA-seq reads were analyzed for each sample to the human reference genome GRCh38 using STAR aligner. Expression estimation was conducted using RSEM followed by differential expression calling using DESeq2. For target genes of interest in both HS-SY-II and SYO1, a total of 960 differentially expressed target genes of interest (DEGs) were analyzed using […] (FIG. 4A).
Upregulation of target genes of interest activated by the chimeric SS18-SSX fusion protein in DMSO media and in media containing Compound 1 were mapped with size and […] (FDR) quantified, based on […] (NES) values (FIG. 4D). Expression of various target genes of interest, upregulation, and downregulation by SS18-SSX fusion genomes, were measured in contact with varying concentrations of Compound 1 (FIG. 4E). Heat maps were created mapping the various target genes of interest cultured in media containing only DMSO, compared to media containing Compound 1, for multiple samples (FIG. 4F-4G). Enrichment scores were calculated using gene set enrichment analysis for HS-SY-II cells in contact with DMSO and varying concentrations of Compound 1 for target genes of interest (FIG. 4H). Additional experiments comparing gene expression differences due to DMSO or Compound 1 on SYO-II and HS-SY-II cells were performed. Not only were SS18-SSX-regulated genes affected by Compound 1 treatment, but other genes also impacted included the HOX genes: HOXC6, HOXA10 as well as SRSF1 and TYMS. (FIG. 4I).

SYO1 cells [3] = test: CellTiter-Glo viability, 2D and 3D cultures; assay type: cell-based, human; conditions: over 2, 3, and 4 days
Procedure: as §3

H2AK119ub [4] = test: ChIP-sequencing of H2AK119ub; assay type: cell-based, human
SYO1 cells [5] = test: Colony-forming assay (crystal violet); assay type: cell-based, human; conditions: Compound 1 titration series
Procedure: Further testing of Compound 1 was performed on 2D and 3D cultures for SYO1 and Aska-SS cell lines to determine whether these culture conditions resist Compound 1 treatment.

[6] = 25 mg/kg, 3 intraperitoneal injections a week for 5 weeks, vs vehicle
[7] = Ki-67 staining of tumor sections, vs vehicle-treated tumors
[8] = harvested flank tumors, vs vehicle-treated tumors

Cc1sc(C(=O)c2cncnc2N[C@@H]2C[C@H](COS(N)(=O)=O)[C@@H](O)C2)cc1[C@@H]1NCCc2ccc(Cl)cc21 [Compound 1]
colony formation (12273/99 cells): dramatic and dose-dependent reduction in colony formation
tumor growth (Aska-SS flank tumors; [6]): reduction of tumor growth
tumor volumes (Aska-SS flank tumors; [6]): significantly reduced
tumor weights (Aska-SS flank tumors; [6]): significantly reduced
decrease in Ki67 positivity (Aska-SS flank tumors; [7]): ~60%
number of cells per unit area (tumor cellularity, hematoxylin and eosin) (Aska-SS flank tumors; [8]): marked reduction
tumor growth (SYO1 flank tumors; [6]): reduction of tumor growth
tumor volumes (SYO1 flank tumors; [6]): significantly reduced
tumor weights (SYO1 flank tumors; [6]): significantly reduced
decrease in Ki67 positivity (SYO1 flank tumors; [7]): ~60%
number of cells per unit area (tumor cellularity, hematoxylin and eosin) (SYO1 flank tumors; [8]): marked reduction
interruption of the SUMO cycle [1]: interrupt the SUMO cycle at the E1 Ligase Activation step
SS18-SSX fusion occupancy at SS18-SSX-repressed target GADD45B (SS18-SSX fusion): diminished SS18-SSX fusion occupancy; also recorded: decrease of SS18-SSX occupation of this gene
SS18-SSX occupancy at SS18-SSX-activated targets HOXA10 and SOX8 (SS18-SSX fusion): lost SS18-SSX occupancy; also recorded: decrease of SS18-SSX occupation
SS18-SSX2 fusion genomic occupancy (SS18-SSX fusion; Compound 1-treated compared to vehicle-treated arms): substantial decrease
reduction in genome-wide chromatin binding signal of the SS18-SSX fusion (FRiP) (SS18-SSX fusion; SYO1 cells, compared to DMSO treated cells): 1.87 fold
fusion-binding signal at synovial sarcoma target genes (meta-analysis) (SS18-SSX fusion; maximum signal centered around the transcription start site): reduction in the fusion binding
colony formation (HS-SY-II cells): dramatic and dose-dependent reduction in colony formation
H2AK119ub by immunoblotting (H2AK119ub [2]; 1273/99 cell line): marked reduction
H2AK119ub by immunoblotting (H2AK119ub [2]; Aska cell line): marked reduction
H2AK119ub by immunoblotting (H2AK119ub [2]; HS-SY-II cell line): marked reduction
H2AK119ub by immunoblotting (H2AK119ub [2]; SYO1 cell line): marked reduction
levels of SS18-SSX1 protein (SS18-SSX1 protein; HS-SY-II cell line): reduction in the levels
levels of SS18-SSX1 fusion (SS18-SSX1 protein; SYO1 cell lines): reduction in the levels
viability as measured by CellTiter-Glo (Aska-SS cells): progressive and marked decrease in viability; also recorded: affected in a Compound 1 concentration-dependent manner
expression of GADD45B (HS-SY-II and SYO1 cells): increased expression (de-repression); also recorded: increase in its expression
expression of HOXA10 and SOX8 (HS-SY-II and SYO1 cells): reduced expression
expression of key cancer-associated genes upregulated by the SySa fusion (CDX2, HOXA10, SUZ12, TYMS, AURKB, HOXC10, SMC2) (HS-SY-II and SYO1 cells; HS-SY-II and SYO1, vs DMSO): downregulated
expression of HOXC6, HOXA10, SRSF1 and TYMS (HS-SY-II and SYO1 cells; SYO1 and HS-SY-II cells, vs DMSO): impacted
expression of SS18-SSX-regulated genes (HS-SY-II and SYO1 cells; SYO-II and HS-SY-II cells, vs DMSO): affected
viability as measured by CellTiter-Glo (SYO1 cells [3]): progressive and marked decrease in viability; also recorded: affected in a Compound 1 concentration-dependent manner
H2AK119ub at GADD45B (H2AK119ub [4]): reduced H2AK119ub
reduction of genome-wide H2AK119ub levels (FRiP) (H2AK119ub [4]; SYO1 cells, versus DMSO-treated): 1.53 fold
H2AK119ub genome-wide (H2AK119ub [4]; compared to DMSO-treated cells): substantial reduction
colony formation (SYO1 cells [5]): dramatic and dose-dependent reduction in colony formation
